Measurements reported in patent US12415786B2, “Substituted 2-heteroarylaminobenzenes and the salts thereof and their use as herbicidal agents” (Bayer Aktiengesellschaft, priority 2019, dated 2025).

Legend:
Format in all cases: in vivo
[1] = test system: Agrostis tenuis; experiment: Herbicidal early post-emergence action (96-well microtiter plates), AGSTE; conditions: 1900 g/ha, scored 9 to 12 days after treatment, 100% = plants have died, 0% = like untreated control plants
Excerpt: (§1) In the examples and tables below, the following abbreviations are used: • Undesired Plants/Weeds: • ABUTH: Abutilon theophrasti • AGSTE: Agrostis tenuis • AMARE Amaranthus retroflexus • ECHCG: Echinochloa crus-galli • LOLRI: Lolium rigidum • MATIN: Matricaria inodora • POAAN: Poa annua • SETVI: Setaria viridis • STEME: Stellaria media A. Herbicidal Early Post-Emergence Action Seeds of monocotyledonous and dicotyledonous weed plants were placed in 96-well microtiter plates in quartz sand and grown in a climatized chamber under controlled growth conditions. 5 to 7 days after sowing, the test plants were treated at the cotyledon stage. The compounds according to the invention, formulated in the form of emulsion concentrates (EC), were applied with a water application rate of the equivalent of 2200 liters per hectare. After the test plants had been left to stand in the climatized chamber for 9 to 12 days under optimum growth conditions, the effect of the preparations was scored visually in comparison to untreated controls. Here, for example, 100% activity=the plants have died, 0% activity=like untreated control plants. Tables A1 to A2 below show the effects of selected compounds of the general formula (I) according to Table 1 above on various harmful plants and an application rate corresponding to 1900 g/ha, which were obtained by the experimental procedure mentioned above.

[2] = test system: Amaranthus retroflexus; experiment: Herbicidal post-emergence action (greenhouse pots), AMARE; conditions: 1280 g/ha, visual rating about 3 weeks after treatment vs untreated controls
Excerpt: (§2) In the examples and tables below, the following abbreviations are used: • Undesired Plants/Weeds: • ABUTH: Abutilon theophrasti • AGSTE: Agrostis tenuis • AMARE Amaranthus retroflexus • ECHCG: Echinochloa crus-galli • LOLRI: Lolium rigidum • MATIN: Matricaria inodora • POAAN: Poa annua • SETVI: Setaria viridis • STEME: Stellaria media A. Herbicidal Early Post-Emergence Action Seeds of mono- and dicotyledonous weed plants were placed in plastic pots in sandy loam soil (doubly sown with in each case one species of mono- or dicotyledonous weed plants per pot), covered with soil and cultivated in a greenhouse under controlled growth conditions. 2 to 3 weeks after sowing, the test plants were treated at the one-leaf stage. The compounds of the invention, formulated in the form of wettable powders (WP) or as emulsion concentrates (EC), were applied onto the green parts of the plants as aqueous suspension or emulsion with addition of 0.5% additive at a water application rate of 600 liters per hectare (converted). After the test plants had been kept in the greenhouse under optimum growth conditions for about 3 weeks, the activity of the preparations was rated visually in comparison to untreated controls. For example, 100% activity=the plants have died, 0% activity=like untreated control plants. Tables B1-B8 below show the effects of selected compounds of the general formula (I) according to Table 1 above on various harmful plants and an application rate corresponding to 1280 g/ha, which were obtained by the experimental procedure mentioned above.

[3] = test system: Stellaria media; experiment: Herbicidal pre-emergence action (greenhouse pots), STEME; conditions: 1280 g/ha, visual scoring after about 3 weeks vs untreated controls
Excerpt: (§3) In the examples and tables below, the following abbreviations are used: • Undesired Plants/Weeds: • ABUTH: Abutilon theophrasti • AGSTE: Agrostis tenuis • AMARE Amaranthus retroflexus • ECHCG: Echinochloa crus-galli • LOLRI: Lolium rigidum • MATIN: Matricaria inodora • POAAN: Poa annua • SETVI: Setaria viridis • STEME: Stellaria media A. Herbicidal Early Post-Emergence Action Seeds of mono- and dicotyledonous weed plants were placed in plastic pots in sandy loam soil (doubly sown with one species each of mono- or dicotyledonous weed plants per pot) and covered with soil. The compounds of the invention, formulated in the form of wettable powders (WP) or as emulsion concentrates (EC), were then applied onto the surface of the covering soil as aqueous suspension or emulsion with addition of 0.5% additive at a water application rate of 600 liters per hectare (converted). After the treatment, the pots were placed in a greenhouse and kept under good growth conditions for the test plants. After about 3 weeks, the effect of the preparations was scored visually in comparison with untreated controls as percentages. For example, 100% activity=the plants have died, 0% activity=like untreated control plants. Tables C1-C8 below show the effects of selected compounds of the general formula (I) according to Table 1 above on various harmful plants and an application rate corresponding to 1280 g/ha, which were obtained by the experimental procedure mentioned above.

[4] = test system: Matricaria inodora; experiment: Herbicidal pre-emergence action (greenhouse pots), MATIN; conditions: 1280 g/ha, visual scoring after about 3 weeks vs untreated controls
Excerpt: as §3

[5] = test system: Amaranthus retroflexus; experiment: Herbicidal pre-emergence action (greenhouse pots), AMARE; conditions: 1280 g/ha, visual scoring after about 3 weeks vs untreated controls
Excerpt: as §3

[6] = test system: Poa annua; experiment: Herbicidal early post-emergence action (96-well microtiter plates), POAAN; conditions: 1900 g/ha, scored 9 to 12 days after treatment, 100% = plants have died, 0% = like untreated control plants
Excerpt: as §1

[7] = test system: Stellaria media; experiment: Herbicidal post-emergence action (greenhouse pots), STEME; conditions: 1280 g/ha, visual rating about 3 weeks after treatment vs untreated controls
Excerpt: as §2

[8] = test system: Poa annua; experiment: Herbicidal pre-emergence action (greenhouse pots), POAAN; conditions: 1280 g/ha, visual scoring after about 3 weeks vs untreated controls
Excerpt: as §3

[9] = test system: Setaria viridis; experiment: Herbicidal pre-emergence action (greenhouse pots), SETVI; conditions: 1280 g/ha, visual scoring after about 3 weeks vs untreated controls
Excerpt: as §3

[10] = test system: Abutilon theophrasti; experiment: Herbicidal post-emergence action (greenhouse pots), ABUTH; conditions: 1280 g/ha, visual rating about 3 weeks after treatment vs untreated controls
Excerpt: as §2

Compound	AGSTE (herbicidal activity, scored visually in comparison to untreated controls) [1]	herbicidal activity AMARE [2]	herbicidal activity STEME [3]	herbicidal activity MATIN [4]	herbicidal activity AMARE [5]	POAAN (herbicidal activity, scored visually in comparison to untreated controls) [6]	herbicidal activity STEME [7]	herbicidal activity POAAN [8]	herbicidal activity SETVI [9]	herbicidal activity ABUTH [10]
COc1cccc(Oc2c(C#N)cccc2Nc2ncc(Cl)cn2)c1 [Example 1-300]	80%	100%	100%	90%	90%					
N#Cc1cccc(Nc2ncc(F)cn2)c1Oc1ccc(F)cc1Cl [Example 1-274]	80%	100%	90%		90%	100%	90%	90%		
N#Cc1cccc(Nc2ncc(F)cn2)c1Oc1ccccc1F [Example 1-265]	80%	100%	100%		100%			100%	90%	
N#Cc1cccc(Nc2ccc(F)cn2)c1Oc1ccc(F)cc1 [Example 1-106]	100%	100%			100%	100%	90%	100%		
N#Cc1ccc(Oc2ccccc2Nc2ncc(Cl)cn2)cc1 [Example 1-339]	100%	100%				100%	100%			
N#Cc1cnc(Nc2cccc(C#N)c2Oc2ccc(F)c(F)c2)nc1 [Example 1-305]	100%	100%	100%	100%	100%	100%	100%	100%	90%	
N#Cc1cccc(Nc2ncccn2)c1Oc1ccc(F)cc1Cl [Example 1-255]	80%	100%	100%		100%	80%	100%			
N#Cc1cccc(Nc2ncccn2)c1Oc1cc(F)cc(F)c1 [Example 1-254]		100%			100%			90%	100%	
N#Cc1cnc(Nc2cccc(C#N)c2Oc2ccc(F)cc2)nc1 [Example 1-304]	100%	100%	100%	100%	100%	100%		100%	100%	
N#Cc1cccc(Nc2ncc(F)cn2)c1Oc1cc(F)ccc1F [Example 1-271]	80%	100%			100%	80%		90%	90%	
Clc1cnc(Nc2ccccc2Oc2cccnc2)nc1 [Example 3-49]	80%	100%								90%
N#Cc1cccc(Nc2ccccn2)c1Oc1ccc(F)cc1 [Example 1-88]	100%				100%	80%	100%		90%	
N#Cc1cccc(Nc2ncc(Cl)cn2)c1Oc1cccc(Cl)c1 [Example 1-287]	80%	100%			100%			100%	100%	
N#Cc1cccc(Nc2ncccn2)c1Oc1ccc(F)cc1F [Example 1-251]	80%	100%	100%	100%	100%	80%			90%	
N#Cc1cccc(Nc2ncccn2)c1Oc1ccc(Cl)cc1F [Example 1-256]	80%	100%	100%	90%	100%	80%		100%	90%	
N#Cc1cccc(Nc2ncccn2)c1Oc1ccc(Cl)cc1 [Example 1-250]	80%	100%	100%		100%	80%	90%	100%	90%	
